Data: patent publication US20220226337A1 (Gilead Sciences, Inc., priority 2018, published 2022)

Molecular target: T1, α4β7 integrin interaction with MadCAM-1 (RPMI8866 cells) (Homo sapiens, UniProt P13612+P26010)
T1 construct: α4β7 integrin expressing cells; endogenous in cells; host or cells: RPMI8866 cells
T1 sequence (P13612 34-1032): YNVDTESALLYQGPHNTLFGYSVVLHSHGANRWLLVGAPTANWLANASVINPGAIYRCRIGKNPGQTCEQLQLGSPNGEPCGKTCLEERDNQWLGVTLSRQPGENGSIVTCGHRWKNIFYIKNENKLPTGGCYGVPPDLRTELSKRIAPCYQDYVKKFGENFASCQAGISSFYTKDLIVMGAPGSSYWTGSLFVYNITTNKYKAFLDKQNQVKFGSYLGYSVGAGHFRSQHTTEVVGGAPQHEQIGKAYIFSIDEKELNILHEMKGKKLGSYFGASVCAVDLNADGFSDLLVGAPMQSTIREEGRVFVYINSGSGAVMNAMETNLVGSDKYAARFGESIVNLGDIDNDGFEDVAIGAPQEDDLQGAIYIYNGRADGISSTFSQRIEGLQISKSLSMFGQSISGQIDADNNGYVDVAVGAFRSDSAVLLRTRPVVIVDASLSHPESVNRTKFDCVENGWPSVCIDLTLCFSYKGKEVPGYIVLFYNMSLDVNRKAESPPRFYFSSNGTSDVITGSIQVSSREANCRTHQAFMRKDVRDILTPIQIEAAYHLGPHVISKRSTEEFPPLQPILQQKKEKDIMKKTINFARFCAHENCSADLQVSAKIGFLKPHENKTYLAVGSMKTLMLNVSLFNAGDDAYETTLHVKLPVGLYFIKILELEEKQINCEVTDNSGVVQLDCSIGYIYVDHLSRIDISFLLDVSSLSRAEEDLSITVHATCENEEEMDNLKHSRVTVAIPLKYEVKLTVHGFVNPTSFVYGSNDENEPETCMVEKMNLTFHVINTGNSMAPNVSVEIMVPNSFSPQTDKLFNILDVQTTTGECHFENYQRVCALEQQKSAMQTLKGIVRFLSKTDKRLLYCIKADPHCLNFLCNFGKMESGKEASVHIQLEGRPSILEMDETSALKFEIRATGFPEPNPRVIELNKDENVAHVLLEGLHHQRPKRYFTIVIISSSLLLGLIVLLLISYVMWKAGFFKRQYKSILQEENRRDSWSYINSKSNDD
T1 sequence (P26010 20-798): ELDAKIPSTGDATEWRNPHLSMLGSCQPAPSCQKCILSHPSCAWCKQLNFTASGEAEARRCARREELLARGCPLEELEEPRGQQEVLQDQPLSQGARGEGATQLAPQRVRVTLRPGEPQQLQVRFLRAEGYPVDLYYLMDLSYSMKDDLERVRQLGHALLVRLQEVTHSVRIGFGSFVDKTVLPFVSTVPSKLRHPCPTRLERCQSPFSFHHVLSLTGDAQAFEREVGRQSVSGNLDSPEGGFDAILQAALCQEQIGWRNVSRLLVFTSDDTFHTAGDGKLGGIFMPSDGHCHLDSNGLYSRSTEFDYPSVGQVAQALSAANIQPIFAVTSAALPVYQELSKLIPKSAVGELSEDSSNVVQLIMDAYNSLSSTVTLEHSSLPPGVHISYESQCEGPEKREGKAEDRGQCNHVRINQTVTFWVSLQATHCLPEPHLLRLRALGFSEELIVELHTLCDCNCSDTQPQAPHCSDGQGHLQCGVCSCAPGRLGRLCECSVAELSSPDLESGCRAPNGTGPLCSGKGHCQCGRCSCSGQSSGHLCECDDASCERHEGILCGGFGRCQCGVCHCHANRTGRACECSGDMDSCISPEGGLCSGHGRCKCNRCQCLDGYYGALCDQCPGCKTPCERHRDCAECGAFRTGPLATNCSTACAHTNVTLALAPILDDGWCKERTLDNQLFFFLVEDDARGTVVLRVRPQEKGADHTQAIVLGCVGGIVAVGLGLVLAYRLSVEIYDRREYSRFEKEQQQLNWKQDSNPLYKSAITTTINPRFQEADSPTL
Assay: α4β7 Integrin Cell Capture Assay
Assay type: cell-based
Details: capture of α4β7 integrin expressing RPMI8866 cells on recombinant MadCAM-1 extracellular domain-coated plate; 0.5 mM MnCl2
How it was run: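 RPMI8866 cells (0.5×10^6 cells/mL in DMEM + 0.5% FBS + 0.5 mM MnCl2) preincubated with compound 1 h at 37 °C, then allowed to adhere 30 min at 37 °C to plates coated with MAdCAM-1 extracellular domain (1.0 μg/mL). Bound cells fixed with 2% glutaraldehyde, Hoechst-stained, imaged and counted; EC50 from cell count versus concentration.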

Structure (SMILES): CC[C@@H](Nc1cc(F)c(C(=O)N[C@@H](Cc2ccc(-c3cc4ccccc4n(C)c3=O)c3c2CCCO3)C(=O)O)c(F)c1)C(F)(F)F [Example 31, (S)-2-(2,6-difluoro-4-(((R)-1,1,1-trifluorobutan-2-yl)amino)benzamido)-3-(8-(1-methyl-2-oxo-1,2-dihydroquinolin-3-yl)chroman-5-yl)propanoic acid]
- EC50: 8.81 nM

Structure (SMILES): Cn1c(=O)c(-c2ccc(C[C@H](NC(=O)c3c(F)cc(N4CCOC[C@@H]4C(F)(F)F)cc3F)C(=O)O)c3c2OCCC3)cc2ccccc21 [Example 32, (S)-2-(2,6-difluoro-4-((R)-3-(trifluoromethyl)morpholino)benzamido)-3-(8-(1-methyl-2-oxo-1,2-dihydroquinolin-3-yl)chroman-5-yl)propanoic acid]
- EC50: 1.78 nM

Structure (SMILES): CC[C@@H](Nc1cc(F)c(C(=O)N[C@@H](Cc2ccc(-c3c(C)c4cc(F)ccc4n(C)c3=O)c3c2CCCO3)C(=O)O)c(F)c1)C(F)(F)F [Example 33, (S)-2-(2,6-difluoro-4-(((R)-1,1,1-trifluorobutan-2-yl)amino)benzamido)-3-(8-(6-fluoro-1,4-dimethyl-2-oxo-1,2-dihydroquinolin-3-yl)chroman-5-yl)propanoic acid]
- EC50: 2.72 nM

Structure (SMILES): Cc1c(-c2ccc(C[C@H](NC(=O)c3c(F)cc(N4CCOC[C@@H]4C(F)(F)F)cc3F)C(=O)O)c3c2OCCC3)c(=O)n(C)c2ccc(F)cc12 [Example 34, (S)-2-(2,6-difluoro-4-((R)-3-(trifluoromethyl)morpholino)benzamido)-3-(8-(6-fluoro-1,4-dimethyl-2-oxo-1,2-dihydroquinolin-3-yl)chroman-5-yl)propanoic acid]
- EC50: 0.236 nM

Structure (SMILES): Cc1c(-c2ccc(C[C@H](NC(=O)c3c(F)cccc3F)C(=O)O)c3c2CCOC3)c(=O)n(C)c2ccc(F)cc12 [Example 35, (S)-2-(2,6-difluorobenzamido)-3-(5-(6-fluoro-1,4-dimethyl-2-oxo-1,2-dihydroquinolin-3-yl)isochroman-8-yl)propanoic acid]
- EC50: 1.96 nM

Structure (SMILES): Cn1c(=O)c(-c2ccc(C[C@H](NC(=O)c3c(Cl)cccc3Cl)C(=O)O)c3c2OC(C)(C)C3)cc2ccccc21 [Example 38, (S)-2-(2,6-dichlorobenzamido)-3-(2,2-dimethyl-7-(1-methyl-2-oxo-1,2-dihydroquinolin-3-yl)-2,3-dihydrobenzofuran-4-yl)propanoic acid]
- EC50: 20.6 nM

Structure (SMILES): CC[C@@H](Nc1cc(F)c(C(=O)N[C@@H](Cc2ccc(-c3c(C(F)(F)F)cc(C)n(C)c3=O)c3c2CCCO3)C(=O)O)c(F)c1)C(F)(F)F [Example 43, (S)-2-(2,6-difluoro-4-(((R)-1,1,1-trifluorobutan-2-yl)amino)benzamido)-3-(8-(1,6-dimethyl-2-oxo-4-(trifluoromethyl)-1,2-dihydropyridin-3-yl)chroman-5-yl)propanoic acid]
- EC50: 0.633 nM

Structure (SMILES): COc1cc(C)n(C)c(=O)c1-c1ccc(C[C@H](NC(=O)c2c(F)cc(N3CCOC[C@@H]3C(F)(F)F)cc2F)C(=O)O)c2c1OCCC2 [Example 46, (S)-2-(2,6-difluoro-4-((R)-3-(trifluoromethyl)morpholino)benzamido)-3-(8-(4-methoxy-1,6-dimethyl-2-oxo-1,2-dihydropyridin-3-yl)chroman-5-yl)propanoic acid]
- EC50: 0.25 nM

Structure (SMILES): CC[C@@H](Nc1cc(F)c(C(=O)N[C@@H](Cc2ccc(-c3c(OC)cc(C)n(C)c3=O)c3c2CCCO3)C(=O)O)c(F)c1)C(F)(F)F [Example 47, (S)-2-(2,6-difluoro-4-(((R)-1,1,1-trifluorobutan-2-yl)amino)benzamido)-3-(8-(4-methoxy-1,6-dimethyl-2-oxo-1,2-dihydropyridin-3-yl)chroman-5-yl)propanoic acid]
- EC50: 0.58 nM

Structure (SMILES): COc1cc(C)n(C)c(=O)c1-c1ccc(C[C@H](NC(=O)c2c(F)cc(N[C@H](C)C(F)(F)F)cc2F)C(=O)O)c2c1OCCC2 [Example 48, (S)-2-(2,6-difluoro-4-(((R)-1,1,1-trifluoropropan-2-yl)amino)benzamido)-3-(8-(4-methoxy-1,6-dimethyl-2-oxo-1,2-dihydropyridin-3-yl)chroman-5-yl)propanoic acid]
- EC50: 1.23 nM

Structure (SMILES): CC[C@@H](Nc1cc(F)c(C(=O)N[C@@H](Cc2ccc(-c3nc(C)c(C)n(C)c3=O)c3c2CCCO3)C(=O)O)c(F)c1)C(F)(F)F [Example 49, (S)-2-(2,6-difluoro-4-(((R)-1,1,1-trifluorobutan-2-yl)amino)benzamido)-3-(8-(4,5,6-trimethyl-3-oxo-3,4-dihydropyrazin-2-yl)chroman-5-yl)propanoic acid]
- EC50: 0.83 nM

Structure (SMILES): C[C@@H](Nc1cc(F)c(C(=O)N[C@@H](Cc2ccc(-c3c(Cl)cc(F)cc3Cl)c3c2CCCO3)C(=O)O)c(F)c1)C(F)(F)F [Example 50, (S)-3-(8-(2,6-dichloro-4-fluorophenyl)chroman-5-yl)-2-(2,6-difluoro-4-(((R)-1,1,1-trifluoropropan-2-yl)amino)benzamido)propanoic acid]
- EC50: 43.4 nM

Structure (SMILES): O=C(N[C@@H](Cc1ccc(-c2c(Cl)cc(F)cc2Cl)c2c1OCCN2)C(=O)O)c1c(F)cccc1F [Example 51, (S)-3-(5-(2,6-dichloro-4-fluorophenyl)-3,4-dihydro-2H-benzo[b][1,4]oxazin-8-yl)-2-(2,6-difluorobenzamido)propanoic acid]
- EC50: 34 nM

Structure (SMILES): CC[C@@H](Nc1cc(F)c(C(=O)N[C@@H](Cc2ccc(-c3c(C)cc(C)n(C)c3=O)c3c2CCCO3)C(=O)O)c(F)c1)C(F)(F)F [Example 52, (S)-2-(2,6-difluoro-4-(((R)-1,1,1-trifluorobutan-2-yl)amino)benzamido)-3-(8-(1,4,6-trimethyl-2-oxo-1,2-dihydropyridin-3-yl)chroman-5-yl)propanoic acid]
- EC50: 1.63 nM

Structure (SMILES): Cc1cc(C)n(C)c(=O)c1-c1ccc(C[C@H](NC(=O)c2c(F)cc(N[C@H](C)C(F)(F)F)cc2F)C(=O)O)c2c1OCCC2 [Example 53, (S)-2-(2,6-difluoro-4-(((R)-1,1,1-trifluoropropan-2-yl)amino)benzamido)-3-(8-(1,4,6-trimethyl-2-oxo-1,2-dihydropyridin-3-yl)chroman-5-yl)propanoic acid]
- EC50: 3.28 nM

Structure (SMILES): CC[C@@H](Nc1cc(F)c(C(=O)N[C@@H](Cc2ccc(-c3c(C)n(C)c(=O)n(C)c3=O)c3c2CCCO3)C(=O)O)c(F)c1)C(F)(F)F [Example 54, (S)-2-(2,6-difluoro-4-(((R)-1,1,1-trifluorobutan-2-yl)amino)benzamido)-3-(8-(1,3,6-trimethyl-2,4-dioxo-1,2,3,4-tetrahydropyrimidin-5-yl)chroman-5-yl)propanoic acid]
- EC50: 0.607 nM

Structure (SMILES): Cc1c(-c2ccc(C[C@H](NC(=O)c3c(F)cccc3F)C(=O)O)c3c2OCCC3)c(=O)n(C)c2ccccc12 [Example 57, (S)-2-(2,6-difluorobenzamido)-3-(8-(1,4-dimethyl-2-oxo-1,2-dihydroquinolin-3-yl)chroman-5-yl)propanoic acid]
- EC50: 4.19 nM

Structure (SMILES): Cc1c(-c2ccc(C[C@H](NC(=O)c3c(Cl)cccc3Cl)C(=O)O)c3c2OCCC3)c(=O)n(C)c2ccccc12 [Example 60, (S)-2-(2,6-dichlorobenzamido)-3-(8-(1,4-dimethyl-2-oxo-1,2-dihydroquinolin-3-yl)chroman-5-yl)propanoic acid]
- EC50: 4.12 nM
